Where a name gives a salt, the structure may show the parent alone.
Columns and labels:
NF-AT = NF-AT Inhibition Assay Directed β-Galactosidase Expression in FGL-5 cells; type: cell-based; conditions: 50% inhibition of NF-AT directed β-galactosidase activity in FGL-5 cells stimulated with phorbol dibutyrate and ionomycin; TABLE 3
Protocol: 3) NF-AT Assay Stimulation of T-cells leads to the appearance of several transcription factors, including one designated "NF-AT". These factors are involved in regulation of gene expression required for immunologic activation. Some of these transcription factors appear to have functions in a wide variety of cell types. By contrast, NF-AT is found primarily in T-cells and its role is restricted to early gene activation. […] Inhibition of NF-AT activity is measured using FGL-5 cells. FGL-5 is a cloned line of stably transfected Jurkat T-cells that contain two construct in which three tandem copies of the NF-AT DNA binding site direct transcription of both murine CD8 and the lacZ gene, encoding β-galactosidase ([…] et al., 1990, Genes & Development 4:1823). When these cells are stimulated with phorbol esters which activate protein kinase C and calcium ionophore to raise the intracellular calcium concentration, transcriptionally active NF-AT is produced. In T-cells, this normally leads to the expression of IL-2, T-cell growth factor. However, in FGL-5 cells NF-AT activation leads to the production of β-galactosidase which can be detected using an appropriate substrate. […] NF-AT Inhibition Assay Directed β-Galactosidase Expression This assay was performed essentially as described (Bierer et al., 1990, Proc. Natl. Acad. Sci. 87:9231). […] The assays were done with exponentially growing cells whose density was not greater than 0.5 million cells/ml. The cells were resuspended to 3 million cells/ml in medium and 0.1 ml was added to wells of a 96-well plate. The compounds of the present invention were dissolved in either ethanol or dimethylsulfoxide at 10 mM and […] of various dilutions in medium were added to cells in duplicate wells. Treatment controls consisted of duplicate wells containing 0.5 ml/well of either medium, ethanol or dimethylsulfoxide. The ethanol and dimethyl sulfoxide were at the same concentration as was used for the compounds. […] Phorbol dibutyrate (Sigma) and Ionomycin (Calbiochem) were dissolved at 50 μg/ml and 2 mM, respectively and stored at -70° C. […] For unstimulated cell controls, 0.5 ml/well of medium was added to duplicate wells. The plates were incubated overnight (16-18 hours) at 37° C. in a humidified atmosphere of 5% CO2 and air. β-galactosidase activity was measured as the fluorescence generated by the cleavage of 4-methyl umbelliferyl-β-D-galactoside (Sigma) at the β-galactoside bond. After overnight incubation, the cells were centrifuged at 500×g for 3 minutes in the 96-well plates and washed 3 times with PBS. […] The percent inhibition by each concentration of the compounds was calculated as: […]

human T-cells = assay: Suppression of Human T-Cell Proliferation Assay (PHA-stimulated, [3H]-thymidine incorporation); type: cell-based; conditions: concentration inhibiting [3H]-thymidine incorporation of PHA-stimulated T-cells by 50%, 72 hours; TABLE 2; read-out: IC50
Procedure, shortened: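 Read-out is scintillation counting of [3H]-thymidine pulsed for the last 6 h of a 72 h, 37° C culture. Human T-cells, isolated from LeukoPaks by Lymphoprep and sheep-erythrocyte rosetting, were PHA-M activated (40 μg/ml stock) with compound dilutions added in duplicate wells.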

FKBP = FKBP (Homo sapiens, UniProt P62942); assay: PPIase Inhibition Assay; type: biochemical; conditions: concentration of inhibitor required for 50% inhibition of enzyme activity; FKBP, substrate Succinyl-Ala-Phe-Pro-Phe-para-nitroanilide; TABLE I
Procedure, shortened: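 Rates from p-nitroaniline release at 390 nm over 90 sec, fitted first-order, were converted to % activity remaining relative to uncatalyzed and uninhibited rates, with IC50 from linear regression of V-/V+ against inhibitor level. FKBP acted on Suc-Ala-Phe-Pro-Phe-pNA with excess chymotrypsin, HEPES pH 7.8, cold buffer.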

FKBP, sequence (P62942 whole entry): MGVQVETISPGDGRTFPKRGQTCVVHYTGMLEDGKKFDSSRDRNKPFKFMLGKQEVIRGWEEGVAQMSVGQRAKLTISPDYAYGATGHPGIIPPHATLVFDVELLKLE

SMILES: CC(C)C[C@H](NC(=O)[C@@H]1CCCN1CC(=O)C12CC3CC(CC(C3)C1)C2)C(=O)NCc1ccccc1 [Example 57, L-Leucine, N-[1-(2-Adamantan-1-yl-2-Oxoethyl)-L-Prolyl] Benzylamide]
- IC50 (NF-AT): > 100 µM
- IC50 (human T-cells): 8 µM
- IC50 (FKBP): 0.22 µM

SMILES: COc1ccc(CNC(=O)[C@@H]2CCCN2CC(=O)c2cc(OC)c(OC)c(OC)c2)cc1 [Example 132, L-Proline, 1-[2-(3,4,5-Trimethoxyphenyl)-2-Oxoethyl] 4-Methoxybenzamide Hydrochloride]
- IC50 (NF-AT): > 33 µM
- IC50 (human T-cells): 24 µM
- IC50 (FKBP): > 5 µM

SMILES: COc1cc(C(=O)CN2CCC[C@H]2C(=O)N[C@H](C)c2ccccc2)cc(OC)c1OC [Example 137, L-Proline, 1-[2-(3,4,5-Trimethoxyphenyl)-2-Oxoethyl] (R)-α-methylbenzylamide Hydrochloride]
- IC50 (NF-AT): > 33 µM
- IC50 (human T-cells): 16 µM
- IC50 (FKBP): > 5 µM

SMILES: COc1cc(C(=O)CN2CCC[C@H]2C(=O)N[C@@H](C)c2ccccc2)cc(OC)c1OC [Example 136, L-Proline, 1-[2-(3,4,5-Trimethoxyphenyl)-2-Oxoethyl] (S)-α-methylbenzylamide Hydrochloride]
- IC50 (NF-AT): > 33 µM
- IC50 (human T-cells): 7 µM
- IC50 (FKBP): > 5 µM

SMILES: COc1cc(C(=O)CN2CCC[C@H]2C(=O)NCCc2ccc(NC(=O)c3ccccc3)cc2)cc(OC)c1OC [Example 155, L-Proline, 1-[2-(3,4,5-Trimethoxyphenyl)-2-Oxoethyl] 2-(4-(N-Benzoyl)aminophenyl)ethylamide]
- IC50 (NF-AT): > 15 µM
- IC50 (human T-cells): 9 µM
- IC50 (FKBP): > 5 µM

SMILES: CC[C@H](C)[C@H](NC(=O)[C@@H]1CCCN1CC(=O)c1cc(OC)c(OC)c(OC)c1)C(=O)NCc1ccccc1 [Example 98, L-Isoleucine, N-[1-(2-(3,4,5-Trimethoxyphenyl)-2-Oxoethyl)-L-Prolyl] Benzylamide]
- IC50 (NF-AT): > 33 µM
- IC50 (human T-cells): 7 µM
- IC50 (FKBP): < 5 µM

SMILES: COc1cc(C(=O)CN2CCC[C@H]2C(=O)NCCc2ccccn2)cc(OC)c1OC [Example 124, L-Proline, 1-[2-(3,4,5-Trimethoxyphenyl)-2-Oxoethyl] 2-(Pyrid-2-yl)ethylamide Dihydrochloride]
- IC50 (NF-AT): > 15 µM
- IC50 (human T-cells): > 15 µM
- IC50 (FKBP): > 5 µM

SMILES: CCC[C@H](NC(=O)[C@@H]1CCCN1CC(=O)C12CC3CC(CC(C3)C1)C2)C(=O)NCc1ccccc1 [Example 59, L-Norvaline, N-[1-(2-Adamantan-1-yl-2-Oxoethyl)-L-Prolyl] Benzylamide]
- IC50 (NF-AT): > 100 µM
- IC50 (human T-cells): 10 µM
- IC50 (FKBP): 0.71 µM

SMILES: CC[C@H](C)[C@H](NC(=O)[C@@H]1CCCN1CC(=O)C1CCc2ccccc2O1)C(=O)NCc1ccccc1 (stereo partly drawn) [Example 99, L-Isoleucine, N-[1-(2-(Chroman-2-yl)-2-Oxoethyl)-L-Prolyl] Benzylamide Hydrochloride Salt]
- IC50 (NF-AT): > 15 µM
- IC50 (human T-cells): > 15 µM
- IC50 (FKBP): 5 µM

SMILES: COc1cccc(CNC(=O)[C@@H]2CCCN2CC(=O)c2cc(OC)c(OC)c(OC)c2)c1 [Example 133, L-Proline, 1-[2-(3,4,5-Trimethoxyphenyl)-2-Oxoethyl] 3-Methoxybenzamide Hydrochloride]
- IC50 (NF-AT): > 33 µM
- IC50 (human T-cells): 22 µM
- IC50 (FKBP): > 5 µM

SMILES: CC[C@H](C)[C@H](NC(=O)[C@@H]1CCCN1CC(=O)OCC=C(C)CCC=C(C)CCC=C(C)C)C(=O)NCc1ccccc1 [Example 83, L-Isoleucine, N-[1-(2-[1-(3,7,11-Trimethyldodeca-2,6,10-trien-1-ol)]-2-Oxoethyl)-L-Proline] Benzylamide]
- IC50 (NF-AT): 12 µM
- IC50 (human T-cells): 7 µM
- IC50 (FKBP): > 5 µM

SMILES: COc1cc(C(=O)CN2CCCC[C@H]2C(=O)NCCc2ccc(S(N)(=O)=O)cc2)cc(OC)c1OC [Example 149, L-Homoproline, 1-[2-(3,4,5-Trimethoxyphenyl)-2-Oxoethyl] 2-(4-Sulfamoylphenyl)ethylamide]
- IC50 (NF-AT): > 15 µM
- IC50 (human T-cells): > 15 µM
- IC50 (FKBP): > 5 µM

SMILES: CC[C@H](C)[C@H](NC(=O)[C@@H]1CCCN1CC(=O)C12CC3CC(CC(C3)C1)C2)C(=O)NCc1ccccc1OC [Example 70, L-Isoleucine, N-[1-(2-Adamantan-1-yl-2-Oxoethyl)-L-Prolyl] 2-methoxybenzylamide]
- IC50 (NF-AT): 16 µM
- IC50 (human T-cells): 7 µM
- IC50 (FKBP): 0.64 µM

SMILES: O=C(NCc1ccccc1)[C@H](Cc1ccccc1)NC(=O)[C@@H]1CCCN1CC(=O)C12CC3CC(CC(C3)C1)C2 [Example 58, L-Phenylalanine, N-[1-(2-Adamantan-1-yl-2-Oxoethyl)-L-Prolyl] Benzylamide]
- IC50 (NF-AT): 20 µM
- IC50 (human T-cells): 7 µM
- IC50 (FKBP): 2.3 µM

SMILES: COc1cc(C(=O)CN2CCC[C@H]2C(=O)NC(C)(C)C)cc(OC)c1OC [Example 143, L-Proline, 1-[2-(3,4,5-Trimethoxyphenyl)-2-Oxoethyl] tert-Butylamide Hydrochloride]
- IC50 (NF-AT): > 33 µM
- IC50 (human T-cells): 3 µM
- IC50 (FKBP): > 5 µM

SMILES: COc1cc(C(=O)CN2CCC[C@H]2C(=O)NCCCc2ccccc2)cc(OC)c1OC [Example 122, L-Proline, 1-[2-(3,4,5-Trimethoxyphenyl)-2-Oxoethyl] 3-Phenylpropylamide Hydrochloride]
- IC50 (NF-AT): > 15 µM
- IC50 (human T-cells): 8 µM
- IC50 (FKBP): > 5 µM

SMILES: CC[C@H](C)[C@H](NC(=O)[C@@H]1CCCN1CC(=O)c1ccc2c(c1)OCO2)C(=O)NCc1ccccc1 [Example 107, L-Isoleucine, N-[1-(2-(Benzo[1,3]dioxol-5-yl)-2-Oxoethyl)-L-Prolyl] Benzylamide]
- IC50 (NF-AT): 0.6 µM
- IC50 (human T-cells): 1 µM
- IC50 (FKBP): < 5 µM

SMILES: COc1cc(C(=O)CN2CCC[C@H]2C(=O)N2CCC(c3ccccc3)CC2)cc(OC)c1OC [Example 131, L-Proline, 1-[2-(3,4,5-Trimethoxyphenyl)-2-Oxoethyl] 4-Phenylpiperldenylamide]
- IC50 (NF-AT): > 33 µM
- IC50 (human T-cells): 22 µM
- IC50 (FKBP): > 5 µM

SMILES: CC[C@H](C)[C@H](NC(=O)[C@@H]1CCCN1CC(=O)c1cccc(Oc2ccccc2)c1)C(=O)NCc1ccccc1 [Example 104, L-Isoleucine, N-[1-(2-(3-Phenoxyphenyl)-2-Oxoethyl)-L-Prolyl] Benzylamide]
- IC50 (NF-AT): > 15 µM
- IC50 (human T-cells): > 15 µM
- IC50 (FKBP): < 5 µM

SMILES: CC[C@H](C)[C@H](NC(=O)[C@@H]1CCCN1CC(=O)c1ccc(OCCOc2ccccc2)cc1)C(=O)NCc1ccccc1 [Example 108, L-Isoleucine, N-[1-{2-Oxo-2-[4-(2-Phenoxyethoxy)-Phenyl]-Ethyl}-L-Prolyl] Benzylamide]
- IC50 (NF-AT): > 15 µM
- IC50 (human T-cells): > 15 µM
- IC50 (FKBP): < 5 µM

SMILES: CCOc1cc(C(=O)CN2CCC[C@H]2C(=O)N[C@H](C(=O)NCc2ccccc2)[C@@H](C)CC)cc(OCC)c1OCC [Example 106, L-Isoleucine, N-[1-(2-(3,4,5-Triethoxyphenyl)-2-Oxoethyl)-L-Prolyl] Benzylamide]
- IC50 (NF-AT): > 15 µM
- IC50 (human T-cells): > 15 µM
- IC50 (FKBP): < 5 µM

SMILES: COc1cc(C(=O)CN2CCCC[C@H]2C(=O)N[C@H](/C=C/c2ccccc2)CC(C)C)cc(OC)c1OC [Example 151, L-Homoproline, 1-[2-(3,4,5-Trimethoxyphenyl)-2-Oxoethyl] (1-(S)-[2'-(S)-methylpropyl]-3-phenylprop-2-E-enyl)-amide]
- IC50 (NF-AT): > 15 µM
- IC50 (human T-cells): 4 µM
- IC50 (FKBP): > 5 µM

SMILES: CCCC[C@H](NC(=O)[C@@H]1CCCN1CC(=O)C12CC3CC(CC(C3)C1)C2)C(=O)NCc1ccccc1 [Example 60, L-Norleucine, N-[1-(2-Adamantan-1-yl-2-Oxoethyl)-L-Prolyl] Benzylamide]
- IC50 (NF-AT): 18 µM
- IC50 (human T-cells): 16 µM
- IC50 (FKBP): 0.4 µM

SMILES: COc1cc(C(=O)CN2CCCC[C@H]2C(=O)NCC23CC4CC(CC(C4)C2)C3)cc(OC)c1OC [Example 147, L-Homoproline, 1-[2-(3,4,5-Trimethoxyphenyl)-2-Oxoethyl] Adamant-1-ylmethylamide Hydrochloride]
- IC50 (NF-AT): > 15 µM
- IC50 (human T-cells): 8 µM
- IC50 (FKBP): > 5 µM

Source: patent US5686424A, “2-oxoethyl derivatives as immunosuppressants” (Miles Inc., priority 1995, dated 1997)
